Experiments:
Conditions in all cases: incubation time: 72 h
CAL-120 [1] = experiment: normalised response (% of control), CellTox Green; higher = less cell death (100 = DMSO, 0 = benzethonium chloride kill control)
Summary of the method: (§1)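 Compound was dispensed into 384-well plates at 5 concentrations in 10-fold steps spanning a 10,000-fold range specific to that compound. Breast cancer cell lines were added as 20 µl suspension and left for 72 h before CellTox Green fluorescence (485/520 nm) and then CellTiter-Glo luminescence, read after 10 min at room temperature. Each reported value is the normalised signal at one concentration, with 0.1 % DMSO set at 100 and a positive kill control at 0 on each plate.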

HDQ-P1 [2] = experiment: as above
Summary of the method: as §1

MDA-MB-436 [3] = experiment: as above
Summary of the method: as §1

CAL-148 [4] = experiment: as above
Summary of the method: as §1

HCC1599 [5] = experiment: as above
Summary of the method: as §1

BT-549 [6] = experiment: as above
Summary of the method: as §1

BT-474 [7] = experiment: as above
Summary of the method: as §1

MCF-10A [8] = experiment: as above
Summary of the method: as §1

MDA-MB-231 [9] = experiment: as above
Summary of the method: as §1

HCC1143 [10] = experiment: as above
Summary of the method: as §1

MFM-223 [11] = experiment: as above
Summary of the method: as §1

DU-4475 [12] = experiment: as above
Summary of the method: as §1

CAL-51 [13] = experiment: as above
Summary of the method: as §1

HCC1937 [14] = experiment: as above
Summary of the method: as §1

MDA-MB-453 [15] = experiment: as above
Summary of the method: as §1

Hs578T [16] = experiment: as above
Summary of the method: as §1

CAL-85-1 [17] = experiment: as above
Summary of the method: as §1

CAL-120 [18] = experiment: normalised response (% of control), CellTiter-Glo; higher = more viable cells (100 = DMSO, 0 = benzethonium chloride kill control)
Summary of the method: as §1

HDQ-P1 [19] = experiment: as above
Summary of the method: as §1

MDA-MB-468 = experiment: as above
Summary of the method: as §1

MDA-MB-436 [20] = experiment: as above
Summary of the method: as §1

CAL-148 [21] = experiment: as above
Summary of the method: as §1

HCC1599 [22] = experiment: as above
Summary of the method: as §1

BT-549 [23] = experiment: as above
Summary of the method: as §1

BT-474 [24] = experiment: as above
Summary of the method: as §1

MCF-10A [25] = experiment: as above
Summary of the method: as §1

MDA-MB-231 [26] = experiment: as above
Summary of the method: as §1

HCC1143 [27] = experiment: as above
Summary of the method: as §1

MFM-223 [28] = experiment: as above
Summary of the method: as §1

DU-4475 [29] = experiment: as above
Summary of the method: as §1

CAL-51 [30] = experiment: as above
Summary of the method: as §1

HCC1937 [31] = experiment: as above
Summary of the method: as §1

SK-BR-3 = experiment: as above
Summary of the method: as §1

MDA-MB-453 [32] = experiment: as above
Summary of the method: as §1

Hs578T [33] = experiment: as above
Summary of the method: as §1

CAL-85-1 [34] = experiment: as above
Summary of the method: as §1

Q: With `CCCCCCCCCCCCCCCCCCOP(=O)([O-])OC1CC[N+](C)(C)CC1` [Perifosine] (250 nM) as the compound, how does the normalised response (CAL-120 [1]) read?
A: Its normalised response is 106%.

Q: What about the normalised response (HDQ-P1 [2]) of the same compound?
A: The normalised response was 115%.

Q: And the normalised response (MDA-MB-436 [3])?
A: The normalised response was 94.7%.

Q: What about the normalised response (CAL-148 [4]) of the same compound?
A: Its normalised response is 93.9%.

Q: What about the normalised response (HCC1599 [5]) of the same compound?
A: Its normalised response is 97.8%.

Q: And the normalised response (BT-549 [6])?
A: The normalised response was 88.6%.

Q: What about the normalised response (BT-474 [7]) of the same compound?
A: Its normalised response is 100%.

Q: And the normalised response (MCF-10A [8])?
A: The normalised response was 102%.

Q: And the normalised response (MDA-MB-231 [9])?
A: The normalised response was 79.8%.

Q: What about the normalised response (HCC1143 [10]) of the same compound?
A: The normalised response was 118%.

Q: What about the normalised response (MFM-223 [11]) of the same compound?
A: The normalised response was 59.2%.

Q: And the normalised response (DU-4475 [12])?
A: The normalised response was 101%.

Q: What about the normalised response (CAL-51 [13]) of the same compound?
A: Its normalised response is 110%.

Q: What about the normalised response (HCC1937 [14]) of the same compound?
A: Its normalised response is 107%.

Q: And the normalised response (MDA-MB-453 [15])?
A: The normalised response was 104%.

Q: And the normalised response (Hs578T [16])?
A: The normalised response was 97.2%.

Q: And the normalised response (CAL-85-1 [17])?
A: Its normalised response is 107%.

Q: And the normalised response (CAL-120 [18])?
A: The normalised response was 104%.

Q: And the normalised response (HDQ-P1 [19])?
A: The normalised response was 105%.

Q: And the normalised response (MDA-MB-468)?
A: The normalised response was 99.7%.

Q: And the normalised response (MDA-MB-436 [20])?
A: The normalised response was 99.3%.

Q: And the normalised response (CAL-148 [21])?
A: The normalised response was 97.7%.

Q: What about the normalised response (HCC1599 [22]) of the same compound?
A: Its normalised response is 101%.

Q: What about the normalised response (BT-549 [23]) of the same compound?
A: Its normalised response is 97%.

Q: And the normalised response (BT-474 [24])?
A: Its normalised response is 102%.

Q: What about the normalised response (MCF-10A [25]) of the same compound?
A: Its normalised response is 110%.

Q: What about the normalised response (MDA-MB-231 [26]) of the same compound?
A: Its normalised response is 102%.

Q: And the normalised response (HCC1143 [27])?
A: Its normalised response is 104%.

Q: What about the normalised response (MFM-223 [28]) of the same compound?
A: Its normalised response is 93.7%.

Q: What about the normalised response (DU-4475 [29]) of the same compound?
A: Its normalised response is 96.5%.

Q: What about the normalised response (CAL-51 [30]) of the same compound?
A: Its normalised response is 116%.

Q: What about the normalised response (HCC1937 [31]) of the same compound?
A: The normalised response was 101%.

Q: And the normalised response (SK-BR-3)?
A: Its normalised response is 97.7%.

Q: What about the normalised response (MDA-MB-453 [32]) of the same compound?
A: The normalised response was 98.2%.

Q: What about the normalised response (Hs578T [33]) of the same compound?
A: The normalised response was 104%.

Q: What about the normalised response (CAL-85-1 [34]) of the same compound?
A: Its normalised response is 95.4%.

Q: Which results are given for `C[C@]12CC[C@@H]3c4ccc(O)cc4C[C@@H](CCCCCCCCC[S+]([O-])CCCC(F)(F)C(F)(F)F)[C@H]3[C@@H]1CC[C@@H]2O` (some centres undefined) [Fulvestrant] (100 nM)?
A: normalised response (CAL-120 [1]): 100%; normalised response (MDA-MB-436 [3]): 108%; normalised response (CAL-148 [4]): 100%; normalised response (HCC1599 [5]): 101%; normalised response (BT-549 [6]): 106%; normalised response (BT-474 [7]): 102%; normalised response (MCF-10A [8]): 105%; normalised response (MDA-MB-231 [9]): 114%; normalised response (HCC1143 [10]): 111%; normalised response (MFM-223 [11]): 90.7%; normalised response (DU-4475 [12]): 101%; normalised response (CAL-51 [13]): 113%; normalised response (HCC1937 [14]): 106%; normalised response (MDA-MB-453 [15]): 87.5%; normalised response (Hs578T [16]): 103%; normalised response (CAL-85-1 [17]): 108%; normalised response (CAL-120 [18]): 100%; normalised response (HDQ-P1 [19]): 104%; normalised response (MDA-MB-468): 104%; normalised response (MDA-MB-436 [20]): 108%; normalised response (CAL-148 [21]): 97.4%; normalised response (HCC1599 [22]): 110%; normalised response (BT-549 [23]): 108%; normalised response (BT-474 [24]): 104%; normalised response (MCF-10A [25]): 109%; normalised response (MDA-MB-231 [26]): 104%; normalised response (HCC1143 [27]): 99.3%; normalised response (MFM-223 [28]): 103%; normalised response (DU-4475 [29]): 104%; normalised response (CAL-51 [30]): 114%; normalised response (HCC1937 [31]): 105%; normalised response (SK-BR-3): 107%; normalised response (MDA-MB-453 [32]): 109%; normalised response (Hs578T [33]): 106%; normalised response (CAL-85-1 [34]): 99.1%

Q: `CCC(C)(C)C(=O)O[C@H]1C[C@@H](C)C=C2C=C[C@H](C)[C@H](CC[C@@H]3C[C@@H](O)CC(=O)O3)[C@H]21` [Simvastatin] (1000 nM) was tested. Which normalised response (CAL-120 [1]) did it give?
A: The normalised response was 102%.

Q: What about the normalised response (HDQ-P1 [2]) of the same compound?
A: Its normalised response is 81.5%.

Q: What about the normalised response (MDA-MB-436 [3]) of the same compound?
A: The normalised response was 106%.

Q: What about the normalised response (CAL-148 [4]) of the same compound?
A: The normalised response was 102%.

Q: What about the normalised response (HCC1599 [5]) of the same compound?
A: The normalised response was 95.7%.

Q: What about the normalised response (BT-549 [6]) of the same compound?
A: Its normalised response is 94.5%.

Q: What about the normalised response (BT-474 [7]) of the same compound?
A: The normalised response was 94.2%.

Q: And the normalised response (MCF-10A [8])?
A: Its normalised response is 93.2%.

Q: What about the normalised response (MDA-MB-231 [9]) of the same compound?
A: The normalised response was 86.9%.

Q: What about the normalised response (HCC1143 [10]) of the same compound?
A: The normalised response was 115%.

Q: And the normalised response (MFM-223 [11])?
A: The normalised response was 100%.

Q: And the normalised response (CAL-51 [13])?
A: The normalised response was 111%.

Q: And the normalised response (HCC1937 [14])?
A: The normalised response was 78.2%.

Q: What about the normalised response (MDA-MB-453 [15]) of the same compound?
A: Its normalised response is 106%.

Q: What about the normalised response (Hs578T [16]) of the same compound?
A: The normalised response was 77.5%.

Q: And the normalised response (CAL-85-1 [17])?
A: Its normalised response is 97.2%.

Q: What about the normalised response (CAL-120 [18]) of the same compound?
A: The normalised response was 96.7%.

Q: And the normalised response (HDQ-P1 [19])?
A: Its normalised response is 92.6%.

Q: What about the normalised response (MDA-MB-436 [20]) of the same compound?
A: Its normalised response is 98.9%.

Q: And the normalised response (CAL-148 [21])?
A: The normalised response was 104%.

Q: What about the normalised response (HCC1599 [22]) of the same compound?
A: The normalised response was 102%.

Q: And the normalised response (BT-549 [23])?
A: The normalised response was 93.6%.

Q: And the normalised response (BT-474 [24])?
A: The normalised response was 75%.

Q: And the normalised response (MCF-10A [25])?
A: The normalised response was 111%.

Q: And the normalised response (MDA-MB-231 [26])?
A: Its normalised response is 81.6%.

Q: What about the normalised response (HCC1143 [27]) of the same compound?
A: The normalised response was 96.3%.

Q: What about the normalised response (MFM-223 [28]) of the same compound?
A: The normalised response was 98.9%.

Q: What about the normalised response (CAL-51 [30]) of the same compound?
A: The normalised response was 109%.

Q: What about the normalised response (HCC1937 [31]) of the same compound?
A: Its normalised response is 98.4%.

Q: What about the normalised response (SK-BR-3) of the same compound?
A: The normalised response was 106%.

Q: What about the normalised response (MDA-MB-453 [32]) of the same compound?
A: The normalised response was 102%.

Q: What about the normalised response (Hs578T [33]) of the same compound?
A: Its normalised response is 92.9%.

Q: What about the normalised response (CAL-85-1 [34]) of the same compound?
A: Its normalised response is 96.6%.

Source: the supplement of paper PMC4862054
